In PubChem BioAssay AID1963861 (Molecular Pharmacology Branch, DTP, NCI, 2024):

Test system: 885724-159-R-J1-PDC KRAS PDC multicell spheroid viability
Assay: Anticancer human tumor 885724-159-R-J1-PDC patient-derived pancreatic adenocarcinoma cell line growth inhibition [KRAS2]
Conditions: for IC50: curve of first compound; for viability, T/C: stronger effect = lower value
In short: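 KRAS-mutant tumor cells were grown as spheroids with HUVEC endothelial cells and human MSCs as stroma. Targeted agents were tested alone and with KRAS pathway inhibitors. Doses started at or near clinical Cmax, or 10 microM, descending half-log.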

[1] = second compound 0.1 µM, first compound 0.000316 µM
[2] = second compound 0.1 µM, first compound 0.001 µM
[3] = second compound 0.1 µM, first compound 0.00316 µM
[4] = second compound 0.1 µM, first compound 0.01 µM
[5] = second compound 0.1 µM, first compound 0.0316 µM
[6] = second compound 0.316 µM, first compound 0.000316 µM
[7] = second compound 0.316 µM, first compound 0.001 µM
[8] = second compound 0.316 µM, first compound 0.00316 µM
[9] = second compound 0.316 µM, first compound 0.01 µM
[10] = second compound 0.316 µM, first compound 0.0316 µM
[11] = second compound 1 µM, first compound 0.000316 µM
[12] = second compound 1 µM, first compound 0.001 µM
[13] = second compound 1 µM, first compound 0.00316 µM
[14] = second compound 1 µM, first compound 0.01 µM
[15] = second compound 1 µM, first compound 0.0316 µM
[16] = second compound 3.16 µM, first compound 0.000316 µM
[17] = second compound 3.16 µM, first compound 0.001 µM
[18] = second compound 3.16 µM, first compound 0.00316 µM
[19] = second compound 3.16 µM, first compound 0.01 µM
[20] = second compound 3.16 µM, first compound 0.0316 µM
[21] = second compound 10 µM, first compound 0.000316 µM
[22] = second compound 10 µM, first compound 0.001 µM
[23] = second compound 10 µM, first compound 0.00316 µM
[24] = second compound 10 µM, first compound 0.01 µM
[25] = second compound 10 µM, first compound 0.0316 µM
[26] = second compound 0.1 µM, first compound 0.1 µM
[27] = second compound 0.316 µM, first compound 0.1 µM
[28] = second compound 1 µM, first compound 0.1 µM
[29] = second compound 3.16 µM, first compound 0.1 µM
[30] = second compound 10 µM, first compound 0.1 µM
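Note: spheroids exposed to agents for 7 days before readout.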

Work on CC(=O)Nc1cccc(-n2c(=O)n(C3CC3)c(=O)c3c(Nc4ccc(I)cc4F)n(C)c(=O)c(C)c32)c1 + CC1OCC2(CCN(c3cnc(Sc4ccnc(N)c4Cl)c(N)n3)CC2)C1N yielded an IC50 (second compound 0.1 µM) of 0.715 nM, an IC50 (second compound 0.316 µM) of 0.532 nM and an IC50 (second compound 1 µM) of 0.328 nM. For the same molecule, the IC50 (second compound 3.16 µM) was 0.213 nM, the IC50 (second compound 10 µM) was 0.106 nM and the viability, T/C (second compound 0.1 µM, first compound 0.0001 µM) was 81.5%. The viability, T/C [1] was 62%, the viability, T/C [2] was 44.4% and the viability, T/C [3] was 33.3%. It also gave a viability, T/C [4] of 24.1%, a viability, T/C [5] of 17.9% and a viability, T/C (second compound 0.316 µM, first compound 0.0001 µM) of 73.6%. The viability, T/C [6] was 57.4%, the viability, T/C [7] was 41.3% and the viability, T/C [8] was 28.8%. It also gave a viability, T/C [9] of 23.2%, a viability, T/C [10] of 15.9% and a viability, T/C (second compound 1 µM, first compound 0.0001 µM) of 64.7%. For the same molecule, the viability, T/C [11] was 51.6%, the viability, T/C [12] was 34.8% and the viability, T/C [13] was 28%. For the same molecule, the viability, T/C [14] was 18.4%, the viability, T/C [15] was 15% and the viability, T/C (second compound 3.16 µM, first compound 0.0001 µM) was 57%. The viability, T/C [16] was 47.6%, the viability, T/C [17] was 30.3% and the viability, T/C [18] was 24.3%. The viability, T/C [19] was 17.5%, the viability, T/C [20] was 14.3% and the viability, T/C (second compound 10 µM, first compound 0.0001 µM) was 50.6%. The viability, T/C [21] was 38.6%, the viability, T/C [22] was 26% and the viability, T/C [23] was 19.6%. The viability, T/C [24] was 13.8% and the viability, T/C [25] was 11.7%.
CC(C)n1nc(-c2ccc3oc(N)nc3c2)c2c(N)ncnc21 + CC1OCC2(CCN(c3cnc(Sc4ccnc(N)c4Cl)c(N)n3)CC2)C1N was tested, and the IC50 (second compound 0.1 µM) was 63.3 nM, the IC50 (second compound 0.316 µM) was 49.8 nM and the IC50 (second compound 1 µM) was 33 nM. For the same molecule, the IC50 (second compound 3.16 µM) was 12 nM, the IC50 (second compound 10 µM) was 13.1 nM and the viability, T/C [1] was 90.5%. For the same molecule, the viability, T/C [2] was 79%, the viability, T/C [3] was 69.8% and the viability, T/C [4] was 64.8%. It also gave a viability, T/C [5] of 53.5%, a viability, T/C [26] of 46.8% and a viability, T/C [6] of 86.5%. For the same molecule, the viability, T/C [7] was 75.7%, the viability, T/C [8] was 65% and the viability, T/C [9] was 58.6%. It also gave a viability, T/C [10] of 55.7%, a viability, T/C [27] of 44.8% and a viability, T/C [11] of 76.2%. It also gave a viability, T/C [12] of 69.1%, a viability, T/C [13] of 63.2% and a viability, T/C [14] of 53.6%. It also gave a viability, T/C [15] of 53.4%, a viability, T/C [28] of 43.5% and a viability, T/C [16] of 77.7%. It also gave a viability, T/C [17] of 79.3%, a viability, T/C [18] of 61.5% and a viability, T/C [19] of 53.3%. It also gave a viability, T/C [20] of 45.5%, a viability, T/C [29] of 47.3% and a viability, T/C [21] of 72.6%. It also gave a viability, T/C [22] of 70%, a viability, T/C [23] of 63.2% and a viability, T/C [24] of 51.5%. It also gave a viability, T/C [25] of 44.1% and a viability, T/C [30] of 39.6%.
COC(=O)c1ccc2c(C(=Nc3ccc(N(C)C(=O)CN4CCN(C)CC4)cc3)c3ccccc3)c(O)[nH]c2c1 + CC1OCC2(CCN(c3cnc(Sc4ccnc(N)c4Cl)c(N)n3)CC2)C1N showed an IC50 (second compound 0.1 µM) of 2020 nM, an IC50 (second compound 0.316 µM) of 1820 nM and an IC50 (second compound 1 µM) of 1520 nM. The IC50 (second compound 3.16 µM) was 1400 nM, the IC50 (second compound 10 µM) was 1090 nM and the viability, T/C [5] was 95%. The viability, T/C [26] was 95.8%, the viability, T/C (second compound 0.1 µM, first compound 0.316 µM) was 92.2% and the viability, T/C (second compound 0.1 µM, first compound 1 µM) was 94.2%. It also gave a viability, T/C (second compound 0.1 µM, first compound 3.16 µM) of 21.9%, a viability, T/C (second compound 0.1 µM, first compound 10 µM) of 0.87% and a viability, T/C [10] of 91.4%. The viability, T/C [27] was 84.9%, the viability, T/C (second compound 0.316 µM, first compound 0.316 µM) was 80.9% and the viability, T/C (second compound 0.316 µM, first compound 1 µM) was 86.4%. For the same molecule, the viability, T/C (second compound 0.316 µM, first compound 3.16 µM) was 17.1%, the viability, T/C (second compound 0.316 µM, first compound 10 µM) was 0.39% and the viability, T/C [15] was 67.3%. It also gave a viability, T/C [28] of 69.3%, a viability, T/C (second compound 1 µM, first compound 0.316 µM) of 73.8% and a viability, T/C (second compound 1 µM, first compound 1 µM) of 70.2%. For the same molecule, the viability, T/C (second compound 1 µM, first compound 3.16 µM) was 14.8%, the viability, T/C (second compound 1 µM, first compound 10 µM) was 1.25% and the viability, T/C [20] was 66.9%. It also gave a viability, T/C [29] of 74.1%, a viability, T/C (second compound 3.16 µM, first compound 0.316 µM) of 78.2% and a viability, T/C (second compound 3.16 µM, first compound 1 µM) of 66%. The viability, T/C (second compound 3.16 µM, first compound 3.16 µM) was 10.4%, the viability, T/C (second compound 3.16 µM, first compound 10 µM) was 0.29% and the viability, T/C [25] was 62%. The viability, T/C [30] was 68.8%, the viability, T/C (second compound 10 µM, first compound 0.316 µM) was 61.4% and the viability, T/C (second compound 10 µM, first compound 1 µM) was 53.9%. It also gave a viability, T/C (second compound 10 µM, first compound 3.16 µM) of 2.07% and a viability, T/C (second compound 10 µM, first compound 10 µM) of 0.63%.
